Source: publication PMC9585581, “Developing Photoaffinity Probes for Dopamine Receptor D2 to Determine Targets of Parkinson’s Disease Drugs” (ACS Chemical Neuroscience, 2022)

Columns and labels:
DRD2 = DRD2 (Homo sapiens, UniProt P14416); assay: Western blot analysis of DRD2-probe binding with competition by parent pharmacophore; parameters: expressed in transfected cells; conditions: probe 100 nm; for competition with parent pharmacophore (Western blot): competitor (ropinirole or pramipexole) 50 μM; for photo-cross-linking / colocalization with DRD2 band (Western blot): membrane fraction enriched via Strep Tag II
Sequence of DRD2 (P14416 whole entry): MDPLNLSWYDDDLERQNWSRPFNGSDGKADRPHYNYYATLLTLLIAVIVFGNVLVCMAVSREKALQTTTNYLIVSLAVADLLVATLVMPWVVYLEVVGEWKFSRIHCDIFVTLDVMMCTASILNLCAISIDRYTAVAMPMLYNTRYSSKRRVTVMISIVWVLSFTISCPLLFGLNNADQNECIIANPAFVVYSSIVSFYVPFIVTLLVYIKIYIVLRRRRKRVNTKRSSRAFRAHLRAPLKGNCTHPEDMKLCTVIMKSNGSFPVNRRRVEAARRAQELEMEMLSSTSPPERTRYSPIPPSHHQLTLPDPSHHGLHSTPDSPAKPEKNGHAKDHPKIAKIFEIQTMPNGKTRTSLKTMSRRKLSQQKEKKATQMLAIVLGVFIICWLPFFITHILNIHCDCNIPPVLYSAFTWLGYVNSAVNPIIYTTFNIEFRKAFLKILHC
Description: To observe the photo-cross-linking of DRD2 at the protein level, we analyzed the colocalization of DRD2 by clicking a fluorophore on the probe and performing Western blots. We further observed the competition with the parent pharmacophore of each probe and the ability of a negative control benzophenone (16) to cross-link to DRD2. Our DRD2-expressing cells or unmodified 293T cells (control group) were suspended in media, treated with the probe at a 100 nm concentration, and photo-cross-linked. The cells were then lysed, and the membrane fraction was separated and enriched for DRD2 by pulldown of the Strep Tag II fusion using magnetic beads. After “clicking” a fluorescent tag to the probe, the membrane fraction was run on an SDS-PAGE gel, transferred to a nitrocellulose membrane, and treated with antibodies against DRD2 and Strep Tag II. […] We also observed many nonspecific binding bands for the probe, which is consistent with our other studies, as well as the observations of the field when it relates to photo-cross-linking groups. […] With this confirmation, we proceeded to proteomic analysis of probe interactions.
Figure 6 Photo-cross-linking of probes 5 and 7 to DRD2 visualized with Western blot. Lanes 1–5 correspond to samples with probe 5 at 100 nm, lanes 6–10 correspond to samples treated with probe 7 at 100 nm, and lanes 11–14 correspond to samples treated with negative control probe 16. Lanes: 1, 6, and 11 are the anti-DRD2 antibody channel, lanes 2, 3, 7, 8, and 12 are fluorescence of the Alexa Fluor 555 clicked to the probes 5, 7, or 16, lanes 4, 9, and 13 are the anti-Strep Tag antibody channel, and lanes 5, 10, and 14 are the overlaid channels for the respective probes.
A stable HEK293T-derived cell line-expressing DRD2-Strep Tag II fusion was maintained in DMEM supplemented with 10% FBS, 100 U/mL penicillin, and 100 μg/mL streptomycin in a humidified atmosphere at 37 °C in 5% CO2. Cells were plated at a density of 4 × 10^4 cells/cm^2 in T300 tissue culture flasks (CellTreat) and allowed to grow to an 80% confluency. At confluency, media was removed and cells were washed once with cold HBSS, followed by incubation for 15 min in cold HBSS with 0.53 mM EDTA. Following incubation, cells were scraped off of the bottom of the flask and the cell suspension was transferred to a 15 mL conical tube and then pelleted at 500g for 5 min. The supernatant was removed, and the cell pellet was resuspended in HBSS followed by centrifugation at 500g for 5 min. […] The supernatant of the cell pellet was removed, and the cells were resuspended in probe solution and incubated at room temperature for 2 min followed by centrifugation at 500g for 5 min. The cell pellet was resuspended in either HBSS or 50 μM competitor solution in HBSS and irradiated with a 365 nm UV lamp (8 W, 2 cm distance) for 30 min at room temperature. The cells were then pelleted at 500g for 5 min, and the supernatant was removed. Membrane fractionation was performed following the MEM-PER Membrane Protein Extraction Kit (Thermo). The solubilized membrane fraction was incubated with hydrophilic streptavidin magnetic beads (NEB) for 1 h at room temperature. The flow-through was removed, and the beads were washed twice with PBS. […]

human DRD2, long form = molecular target: T1, human DRD2, long form (Homo sapiens, UniProt P14416); assay: Intracellular Ca2+ mobilization assay (HEK293T stably expressing DRD2, chimeric G-protein Gqi5, calcium dye, confocal microscopy); assay type: cell-based; conditions: for EC50: Ca assay, HEK293T stably expressing human DRD2 and chimeric G-protein, Hill slope of 1.0; for activity in calcium flux assay (in words): calcium flux bioactivity
T1 construct: expressed in transfected cells; Gqi5 chimera transiently transfected
T1 sequence (P14416 whole entry): as above
Description: Intracellular calcium measurement was used to determine G-protein-mediated signaling by DRD2. Because DRD2 is linked to the G-protein subtype Gi, agonist binding inhibits adenyl cyclase activity.[42] To mitigate this effect, we created an HEK293T cell line stably expressing human DRD2, long form, and a chimeric G-protein, Gqi, which alters the DRD2 receptor’s G-protein coupling so that signaling can occur through Gq, resulting in an intracellular calcium flux.[43] The assay is performed by first loading the cell line with a calcium-sensing dye. Binding of the ligand to the receptor results in an influx of calcium to the cytoplasm, which can be characterized in real time by monitoring the increase in dye fluorescence with confocal microscopy.
Figure 2 Intracellular calcium flux assay. HEK293T cell line stably expressing constructs for human DRD2 and a chimeric G-protein is loaded with calcium-sensing dye, […]. After dosing the probe, confocal microscopy is used to determine the calcium flux in the cell by change in dye fluorescence.
A stable HEK293T-derived cell line-expressing DRD2-Strep Tag II fusion was maintained in DMEM supplemented with 10% FBS, 100 U/mL penicillin, and 100 μg/mL streptomycin in a humidified atmosphere at 37 °C in 5% CO2. On day 1, cells were plated at a density of 4 × 10^4 cells/cm^2 in a poly-D-lysine-coated 18-well chambered coverslip (Ibidi). The following day (day 2), cells were transfected with a 10× solution of 3:1 mixture of Gqi5/Optifect Transfection Reagent (Thermo) in unsupplemented DMEM. On day 3, the transfection media was removed and calcium-sensitive dye loading was performed following the protocol of the Fluo-4 Direct Calcium Assay Kit (Invitrogen). 5× drug stimulation solutions were prepared in filter-sterilized HBSS. Once Fluo-4 loading was complete, a time series acquisition at a rate of 1 fps was recorded using a Zeiss LSM 980 with Airyscan 2. Basal fluorescence was recorded for 20 s, followed by the addition of drug solution to a 1× final concentration and acquisition for an additional 40 s. Results in the form of fold fluorescence increase over basal were averaged over 50 cells in ImageJ (NIH), and GraphPad Prism was used for the analysis of data.

SMILES | competition with parent pharmacophore (Western blot) (DRD2) | photo-cross-linking / colocalization with DRD2 band (Western blot) (DRD2) | EC50 (human DRD2, long form) [µM] | activity in calcium flux assay (in words) (human DRD2, long form) | difference in potency of probe vs parent compound (human DRD2, long form; calcium assay, 5 vs ropinirole) [×]
C#CCOc1ccc(C(=O)c2ccc(CN[C@H]3CCc4nc(N)sc4C3)cc2)cc1 [Compound 7, (S)-(4-(((2-Amino-4,5,6,7-tetrahydrobenzo[d]thiazol-6-yl)amino)methyl)phenyl)(4-(prop-2-yn-1-yloxy)phenyl)methanone] | greatly diminish the binding | binding to the DRD2 receptor | 2.19 | low micromolar potency | –
C#CCOc1ccc(C(=O)c2ccc(CNCCc3cccc4c3CC(=O)N4)cc2)cc1 [Compound 5, 4-(2-((4-(4-(Prop-2-yn-1-yloxy)benzoyl)benzyl)amino)ethyl)indolin-2-one] | greatly diminish the binding | binding to the DRD2 receptor | 1.67 | low micromolar potency | ~10
